These results are taken from publication PMC6588608 (Communications Biology, 2019).

For one experiment, the target named is T1, ETB receptor (wild type) (Homo sapiens, UniProt P24530).
T1 construct: expressed in transfected cells; host or cells: HEK293A
T1 sequence (P24530 27-442): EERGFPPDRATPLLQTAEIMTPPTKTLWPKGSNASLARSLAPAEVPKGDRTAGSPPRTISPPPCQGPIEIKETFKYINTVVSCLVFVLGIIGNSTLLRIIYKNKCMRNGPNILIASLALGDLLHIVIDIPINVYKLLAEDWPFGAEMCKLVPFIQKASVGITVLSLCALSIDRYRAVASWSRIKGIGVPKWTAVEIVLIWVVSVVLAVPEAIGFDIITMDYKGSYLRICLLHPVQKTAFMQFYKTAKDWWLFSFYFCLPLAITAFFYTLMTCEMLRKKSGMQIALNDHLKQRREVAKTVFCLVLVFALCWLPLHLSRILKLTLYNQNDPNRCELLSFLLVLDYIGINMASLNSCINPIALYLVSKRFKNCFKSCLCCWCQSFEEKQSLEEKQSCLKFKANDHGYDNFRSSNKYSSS
The experiment can be described thus: TGFα shedding assay, antagonist activity against ET-1 (0.5 nM)-induced AP-TGFα release. To be noted: Supplementary Fig. 5d, ETB (WT). It is filed as cell-based. The protocol:
The TGFα shedding assay, which measures the activation of Gq/11 and G12/13 signaling, was performed as described previously. Briefly, a plasmid encoding an ETB construct with an internal FLAG epitope tag or an ETA construct was transfected, together with a plasmid encoding alkaline phosphatase (AP)-tagged TGFα (AP-TGFα), into HEK293A cells by using a polyethylenimine (PEI) transfection reagent (1 µg ETR plasmid, 2.5 µg AP-TGFα plasmid, and 25 µl of 1 mg per ml PEI solution per 10-cm culture dish). […] The AP-TGFα release signals were fitted to a four-parameter sigmoidal concentration-response curve, using the Prism 7 software (GraphPad Prism), and the pEC50 (equal to −log10 EC50) and Emax values were obtained.

In another experiment the target is T2, ETA (WT) (Homo sapiens, UniProt P25101).
T2 sequence (P25101 21-427): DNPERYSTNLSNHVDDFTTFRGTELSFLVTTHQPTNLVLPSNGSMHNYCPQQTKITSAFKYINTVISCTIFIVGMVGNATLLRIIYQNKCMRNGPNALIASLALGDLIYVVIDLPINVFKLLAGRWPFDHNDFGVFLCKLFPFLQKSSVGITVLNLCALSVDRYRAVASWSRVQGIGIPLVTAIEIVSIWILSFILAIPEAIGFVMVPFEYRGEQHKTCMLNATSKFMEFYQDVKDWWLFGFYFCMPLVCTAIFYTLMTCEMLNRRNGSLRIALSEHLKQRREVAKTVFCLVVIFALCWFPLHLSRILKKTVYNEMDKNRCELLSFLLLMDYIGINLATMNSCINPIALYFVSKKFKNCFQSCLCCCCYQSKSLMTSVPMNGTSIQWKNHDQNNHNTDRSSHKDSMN
Nature of the experiment: TGFα shedding assay, inverse agonist activity (4 h incubation).

In experiment [1] the target is T3, constitutively active ETA receptor (ETA-L3.43Q) (Homo sapiens, UniProt P25101, L176Q).
T3 sequence (P25101 21-427 L176Q): T2 sequence (P25101 21-427) with L156Q
Nature of the experiment: TGFα shedding assay, antagonist activity against ET-1 (0.5 nM)-induced AP-TGFα release.
Experimental: (§1) The TGFα shedding assay, which measures the activation of Gq/11 and G12/13 signaling[24], was performed as described previously[22]. Briefly, a plasmid encoding an ETB construct with an internal FLAG epitope tag or an ETA construct was transfected, together with a plasmid encoding alkaline phosphatase (AP)-tagged TGFα (AP-TGFα), into HEK293A cells by using a polyethylenimine (PEI) transfection reagent (1 µg ETR plasmid, 2.5 µg AP-TGFα plasmid, and 25 µl of 1 mg per ml PEI solution per 10-cm culture dish). […] The AP-TGFα release signals were fitted to a four-parameter sigmoidal concentration-response curve, using the Prism 7 software (GraphPad Prism), and the pEC50 (equal to −log10 EC50) and Emax values were obtained.
(§2) To measure the constitutive activity in a plasmid volume-dependent manner, HEK293 cells were seeded in a 96-well plate at a concentration of 4 × 10^5 cells per ml in Opti-MEM I Reduced Serum Media (Thermo Fisher Scientific), in a volume of 80 μl per well. […] After adding the AP reaction solution, the absorbances of the cells and the CM plates were measured at 20 min intervals. The AP-TGFα release signals were calculated as described above, and the signal in the mock-transfected conditions was set at the baseline.

For experiment [2], the target named is T4, ETA (L3.43Q) (constitutively active ETA receptor) (Homo sapiens, UniProt P25101, L176Q).
T4 sequence (P25101 21-427 L176Q): T2 sequence (P25101 21-427) with L156Q
The experiment can be described thus: TGFα shedding assay, inverse agonist activity (4 h incubation). To be noted: for change of the basal activity: ETA-L^3.43Q, Supplementary Fig. 6b, c.
Experimental: as §1, §2

Experiment [3] concerns the target T5, constitutively active ETB receptor (ETB-L3.43Q) (Homo sapiens, UniProt P24530, L192Q).
T5 sequence (P24530 27-442 L192Q): T1 sequence (P24530 27-442) with L166Q
Nature of the experiment: TGFα shedding assay, antagonist activity against ET-1 (0.5 nM)-induced AP-TGFα release.
Experimental: as §1, §2

Another experiment addresses T6, ETA receptor (wild type) (Homo sapiens, UniProt P25101).
T6 sequence (P25101 21-427): T2 sequence (P25101 21-427)
The description is as above.

For experiment [4], the target named is T7, ETB-L192^3.43Q (constitutively active ETB receptor) (Homo sapiens, UniProt P24530, L192Q).
T7 sequence (P24530 27-442 L192Q): T1 sequence (P24530 27-442) with L166Q
Nature of the experiment: TGFα shedding assay, inverse agonist activity (4 h incubation). To be noted: for Emax: read-out: Emax ± SEM.
Experimental: as §1, §2

A further experiment has as its target T8, ETB-WT (Homo sapiens, UniProt P24530).
T8 sequence (P24530 27-442): T1 sequence (P24530 27-442)
Described as above. Particulars: for Emax: read-out: Emax ± SEM.

Another experiment concerns the target ETB receptor. Further details: method as in PMID 8587424. Particulars: read-out: IC50 as ETB-selective antagonist; cited from earlier work.
Experiment [5] deals with cold injury-mediated brain edema. Further details: method as in PMID 25000290, PMID 26174228. To be noted: animal model; intracerebroventricular administration; cited from earlier work.

Numbering of substitutions follows the chain as printed. Where two headings read alike, the source gives them in different places.

Experimental for ETA (WT): as §1
Experimental for ETA receptor (wild type): as §1
Experimental for ETB-WT: as §1

For `CCCC[C@@H](NC(=O)[C@@H](Cc1cn(C(=O)OC)c2ccccc12)NC(=O)[C@H](CC(C)(C)C)NC(=O)N1[C@H](C)CCC[C@@H]1C)C(=O)O` [BQ-788], the IC50 at ETB receptor (wild type) (read-out: IC50) is 110 nM; at ETB receptor (wild type) (read-out: pIC50 ± SEM (converted)), 107 nM; in [1], above 10000 nM; in experiment [3] (IC50, Supplementary Fig. 5d), 75 nM; in experiment [3] (pIC50 ± SEM, Supplementary Fig. 5d), 74.1 nM; against ETA receptor (wild type) (IC50, Supplementary Fig. 5d, ETA (WT)), above 10000 nM. Besides, the Emax (in general, the greatest response seen or fitted, relative to the assay's reference) at ETA (WT) is below 2%; in experiment [2] it was below 2%; in experiment [4] it was -18.5 ± 0.7%; at ETB-WT, below 2%. Besides, the half-maximal effective concentration (EC50) (usually the concentration at which the effect is half-maximal) was 0.96 nM in experiment [4] (EC50, Table 3, ETB-L192^3.43Q, 4 h incubation, reduction of basal activity for inverse agonists) and 0.955 nM in [4] (pEC50 (mean ± SEM), Table 3, ETB-L192^3.43Q, 4 h incubation).
Take `COc1ccccc1Oc1c(NS(=O)(=O)c2ccc(C(C)(C)C)cc2)nc(-c2ncccn2)nc1OCCO` [Bosentan]: the Emax at ETA (WT) is below 2%. Further, in experiment [2], the Emax was below 2% and the “change of the basal activity” value is “did not change the basal activity”.
On to `Cc1cc(C)cc(C(=O)N(C)C(Cc2ccc(-c3ccccc3)cc2)C(=O)NC(Cc2c[nH]c3ccccc23)C(=O)O)c1` (centres unmarked) [IRL2500], for which the IC50 is 1.2 nM on ETB receptor; above 3000 nM in experiment [1]; above 3000 nM against ETA receptor (wild type) (IC50 for the ETA receptor, text on Fig. 1a); below 3160 nM against ETA receptor (wild type) (pIC50 ± SEM ETA, Fig. 1a, HEK293 cells). Also, the Emax at ETA (WT) was below 2%; in [2], below 2%; in experiment [4] it was -27 ± 1.1%; at ETB-WT, below 2%. Besides, the “change of the basal activity” value in [2] is listed as “did not change the basal activity”. On ETB-WT (wild-type ETB, 4 h-incubation, Fig. 4d), the “change of the receptor activation level (ligand-induced AP-TGFα release)” value is given as “did not change the receptor activation level”. Moreover, the “effect on cold injury-mediated brain edema and disruption of the blood–brain barrier” value in experiment [5] was “attenuated the cold injury-mediated brain edema and disruption of the blood–brain barrier”.
In the case of `COc1ccccc1Oc1c(NS(=O)(=O)c2ccc(C(C)(C)C)cc2)nc(-c2ncccn2)nc1OCCC(=O)Nc1c(C)cccc1C` [K-8794], the “pIC50 ± SEM” value against ETB receptor (wild type) was 8.06 ± 0.04; in experiment [3] (Supplementary Fig. 5d) it was 8.37 ± 0.06. The IC50 on ETB receptor (wild type) (read-out: IC50) is 8.7 nM; in experiment [1] (Supplementary Fig. 5d, ETA (L3.43Q), ET-1 0.5 nM), above 3000 nM; in experiment [3] (Supplementary Fig. 5d), 4.2 nM; against ETA receptor (wild type) (Supplementary Fig. 5d, ETA (WT)), above 3000 nM. Further, the Emax on ETA (WT) (Supplementary Fig. 6c, ETA (WT), AP-TGFα release, baseline = no compound, 4 h) is on record as below 2%; in experiment [2] (Supplementary Fig. 6c, ETA (L3.43Q), AP-TGFα release, baseline = no compound, 4 h), below 2%. For the same compound, in [4] (Table 3, ETB-L192^3.43Q, 4 h incubation), the “pEC50 (mean ± SEM)” value came to 9.21 ± 0.04. In experiment [4] (Table 3, ETB-L192^3.43Q, 4 h incubation, reduction of basal activity for inverse agonists), this compound showed a concentration for a half-maximal effect (EC50) of 0.61 nM. Also, the “Emax ± SEM” value in experiment [4] (Table 3, ETB-L192^3.43Q, AP-TGFα release, spontaneous release set at baseline, 4 h) is reported as −31.5 ± 2.0%; on ETB-WT (Table 3, ETB-WT, AP-TGFα release, spontaneous release set at baseline, 4 h), below 2%.
